Measured values taken from ChEMBL document CHEMBL6071193, “Structure-Activity Relationship of Potent, Selective, and Orally Bioavailable Molecular Glue Degraders of CK1α” (ACS Med Chem Lett, 2024).
Values after ≈ are worked out from the molar mass of the structure shown. Active and inactive are the calls of the source. No cut-off for these calls is given here.

Test system: not listed separately
Test: Stability in mouse plasma assessed as half-life at 10 uM measured upto 48 hrs by UPLC-MS/MS analysis
Format: ADME, cell-free
Details: 48 h, 10 µM
Cc1ccc(C(=O)Nc2ccc3c(c2)CN(C2CCC(=O)NC2=O)C3=O)cc1 (stereo not given) showed a t1/2 of 10 h.

Biological target: T1, Cereblon/Casein kinase I alpha (Homo sapiens, UniProt P48729+Q96SW2)
Test: PROTAC activity at CRBN/HiBiT-tagged CK1alpha in HEK293 cells transfected with LgBiT expression vector assessed as induction of CK1alpha degradation by measuring maximal efficacy at 10 uM measured after 24 hrs by luminescence based GloMax Discover assay relative to control
Format: cell-based
Details: not given
Target sequence in this assay (P48729 2-337 limits assumed): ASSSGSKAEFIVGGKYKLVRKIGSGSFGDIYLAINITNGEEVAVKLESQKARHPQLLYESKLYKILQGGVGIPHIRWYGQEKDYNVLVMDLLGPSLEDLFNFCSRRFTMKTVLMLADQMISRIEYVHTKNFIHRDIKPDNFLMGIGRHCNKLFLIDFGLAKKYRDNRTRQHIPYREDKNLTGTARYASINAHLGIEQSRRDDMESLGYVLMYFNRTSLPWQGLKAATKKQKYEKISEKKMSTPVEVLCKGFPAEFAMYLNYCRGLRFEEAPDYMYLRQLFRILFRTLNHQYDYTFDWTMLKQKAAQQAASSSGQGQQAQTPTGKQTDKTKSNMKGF
Target sequence in this assay (Q96SW2 whole entry partner): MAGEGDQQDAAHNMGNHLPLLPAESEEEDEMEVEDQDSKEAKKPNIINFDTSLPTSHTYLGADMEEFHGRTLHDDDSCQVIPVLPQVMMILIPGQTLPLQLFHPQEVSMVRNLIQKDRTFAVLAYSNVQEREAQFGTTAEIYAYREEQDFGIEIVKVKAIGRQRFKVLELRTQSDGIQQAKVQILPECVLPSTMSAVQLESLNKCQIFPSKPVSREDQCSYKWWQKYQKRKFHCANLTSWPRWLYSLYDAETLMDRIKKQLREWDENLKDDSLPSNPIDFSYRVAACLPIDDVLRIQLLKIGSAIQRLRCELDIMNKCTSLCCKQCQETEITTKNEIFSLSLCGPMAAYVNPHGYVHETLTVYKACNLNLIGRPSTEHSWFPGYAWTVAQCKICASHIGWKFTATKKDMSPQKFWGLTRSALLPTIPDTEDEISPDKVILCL
In the case of O=C1CCC(N2Cc3c(CNC(=O)c4ccc(F)cc4)cccc3C2=O)C(=O)N1 (stereo not given), the Emax is reported as 82%.
In the case of O=C1CCC(N2Cc3cc(NC(=O)c4cccc(C(F)(F)F)c4)ccc3C2=O)C(=O)N1 (stereo not given), the Emax is reported as 90%.
Compound Cc1ccc(C(=O)Nc2ccc3c(c2)C(=O)N(C2CCC(=O)NC2=O)C3)cc1 (stereo not given) has an Emax of 10%.
For Cc1ccc(C(=O)Nc2ccc3c(c2)C(=O)N(C2CCC(=O)NC2=O)C3=O)cc1 (stereo not given), the Emax was 38%.
For Cc1ccc(C(=O)Nc2ccc3c(c2)CN(C2CCC(=O)NC2=O)C3=O)cc1 (stereo not given), the Emax was 89%.

Test system: not listed separately
Test: Metabolic stability in mouse liver microsomes assessed as half-life at 10 uM measured upto 4 hrs in presence of NADPH by UPLC-MS/MS analysis
Format: ADME, Microsome
Details: microsomes, 4 h, 10 µM
With Cc1ccc(C(=O)Nc2ccc3c(c2)CN(C2CCC(=O)NC2=O)C3=O)cc1 (stereo not given) the t1/2 was 4.3 h.

Test system: Jurkat
Test: Cytotoxicity against human Jurkat cells expressing HiBiT-tagged IKZF1 at 0.0001 to 100 uM measured over 24 hrs by Cell-Titer Glo assay
Format: toxicity, cell-based
Details: dose 0.0001-100 µM
In the case of O=C1CCC(N2Cc3cc(NC(=O)c4cccc(C(F)(F)F)c4)ccc3C2=O)C(=O)N1 (stereo not given), the Activity is reported as “Non-Toxic”.
With Cc1ccc(C(=O)Nc2ccc3c(c2)C(=O)N(C2CCC(=O)NC2=O)C3)cc1 (stereo not given) the Activity was “Non-Toxic”.
In the case of Cc1ccc(C(=O)Nc2ccc3c(c2)C(=O)N(C2CCC(=O)NC2=O)C3=O)cc1 (stereo not given), the Activity is reported as “Non-Toxic”.
For Cc1ccc(C(=O)Nc2ccc3c(c2)CN(C2CCC(=O)NC2=O)C3=O)cc1 (stereo not given), the Activity was “Non-Toxic”.

Test system: MOLM-13
Test: Antiproliferative activity against human MOLM-13 cells incubated for 72 hrs by Cell-Titer Glo assay
Format: functional, cell-based
Details: MOLM-13, 72 h
With O=C1CCC(N2Cc3cc(NC(=O)c4cccc(C(F)(F)F)c4)ccc3C2=O)C(=O)N1 (stereo not given) the IC50 was 17 nM.
Cc1ccc(C(=O)Nc2ccc3c(c2)C(=O)N(C2CCC(=O)NC2=O)C3)cc1 (stereo not given) showed an IC50 greater than 10000 nM.
In the case of Cc1ccc(C(=O)Nc2ccc3c(c2)C(=O)N(C2CCC(=O)NC2=O)C3=O)cc1 (stereo not given), the IC50 is reported as greater than 10000 nM.
With Cc1ccc(C(=O)Nc2ccc3c(c2)CN(C2CCC(=O)NC2=O)C3=O)cc1 (stereo not given) the IC50 was 10 nM.

Test system: not listed separately
Test: Stability in human plasma assessed as half-life at 10 uM measured upto 48 hrs by UPLC-MS/MS analysis
Format: ADME, cell-free
Details: not given
With Cc1ccc(C(=O)Nc2ccc3c(c2)CN(C2CCC(=O)NC2=O)C3=O)cc1 (stereo not given) the t1/2 was 5.7 h.

Biological target: T2, Cereblon/Ikaros (Homo sapiens, UniProt Q96SW2+Q13422)
T2 sequence (Q96SW2 whole entry): as the sequence (Q96SW2 whole entry partner) above
T2 sequence (Q13422 whole entry): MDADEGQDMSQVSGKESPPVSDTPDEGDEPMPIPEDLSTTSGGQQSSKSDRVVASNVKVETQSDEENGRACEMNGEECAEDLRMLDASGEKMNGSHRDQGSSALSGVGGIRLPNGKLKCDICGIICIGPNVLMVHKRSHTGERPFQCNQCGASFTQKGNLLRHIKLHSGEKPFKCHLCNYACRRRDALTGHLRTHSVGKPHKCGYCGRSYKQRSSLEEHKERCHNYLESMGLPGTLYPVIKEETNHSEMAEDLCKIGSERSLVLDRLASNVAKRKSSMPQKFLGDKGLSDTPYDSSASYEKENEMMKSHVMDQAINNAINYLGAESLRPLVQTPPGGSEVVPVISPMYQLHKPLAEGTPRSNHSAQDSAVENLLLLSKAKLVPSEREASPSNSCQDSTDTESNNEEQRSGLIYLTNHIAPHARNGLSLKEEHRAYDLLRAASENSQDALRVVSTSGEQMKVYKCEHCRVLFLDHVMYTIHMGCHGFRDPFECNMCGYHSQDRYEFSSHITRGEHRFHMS
Test: PROTAC activity at CRBN/HiBiT-tagged IKZF1 in human Jurkat cells transfected with LgBiT expression vector assessed as induction of IKZF1 degradation by measuring maximal efficacy at 10 uM measured after 24 hrs by luminescence based GloMax Discover assay relative to control
Format: cell-based
Details: not given
Work on O=C1CCC(N2Cc3c(CNC(=O)c4ccc(F)cc4)cccc3C2=O)C(=O)N1 (stereo not given) yielded an Emax of 84%.

Test system: not listed separately
Test: Apparent permeability across basolateral to apical side in MDCK-II cells at 10 micromol/L incubated for 1 hrs by UPLC/MS analysis
Format: ADME, cell-based, Canis lupus familiaris
Details: dog, mdck-ii, 1 h, 10 µM, dose 10 µmol/L
Cc1ccc(C(=O)Nc2ccc3c(c2)CN(C2CCC(=O)NC2=O)C3=O)cc1 (stereo not given) showed a Papp of 2.1 ×10⁻⁶ cm/s.

Biological target: T1, Cereblon/Casein kinase I alpha
Test: PROTAC activity at CRBN/HiBiT-tagged CK1alpha in HEK293 cells transfected with LgBiT expression vector assessed as induction of CK1alpha degradation measured after 24 hrs by luminescence based GloMax Discover assay
Format: cell-based
Details: not given
Target sequence in this assay (P48729 whole entry): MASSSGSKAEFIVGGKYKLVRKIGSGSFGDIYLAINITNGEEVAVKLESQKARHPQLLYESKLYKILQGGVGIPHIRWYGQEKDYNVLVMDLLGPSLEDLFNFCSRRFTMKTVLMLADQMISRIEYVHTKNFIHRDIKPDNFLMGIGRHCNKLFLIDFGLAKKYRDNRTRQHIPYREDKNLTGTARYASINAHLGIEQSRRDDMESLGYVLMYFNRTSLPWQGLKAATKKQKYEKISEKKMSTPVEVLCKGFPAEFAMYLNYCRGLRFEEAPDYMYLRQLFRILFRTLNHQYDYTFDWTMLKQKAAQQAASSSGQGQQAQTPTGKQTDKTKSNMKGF
Target sequence in this assay (Q96SW2 whole entry): as the sequence (Q96SW2 whole entry partner) above
O=C1CCC(N2Cc3c(CNC(=O)c4ccc(F)cc4)cccc3C2=O)C(=O)N1 (stereo not given) gave a DC50 of 28 nM.
O=C1CCC(N2Cc3cc(NC(=O)c4cccc(C(F)(F)F)c4)ccc3C2=O)C(=O)N1 (stereo not given) gave a DC50 of 5 nM.
With Cc1ccc(C(=O)Nc2ccc3c(c2)C(=O)N(C2CCC(=O)NC2=O)C3)cc1 (stereo not given) the DC50 was greater than 10000 nM.
Cc1ccc(C(=O)Nc2ccc3c(c2)C(=O)N(C2CCC(=O)NC2=O)C3=O)cc1 (stereo not given) gave a DC50 greater than 10000 nM.
Compound Cc1ccc(C(=O)Nc2ccc3c(c2)CN(C2CCC(=O)NC2=O)C3=O)cc1 (stereo not given) has a DC50 of 7 nM.

Biological target: T1, Cereblon/Casein kinase I alpha
Test: PROTAC activity at CRBN/HiBiT-tagged CK1alpha in HEK293 cells transfected with LgBiT expression vector assessed as induction of CK1alpha degradation by measuring degradation rate at 10 uM measured after 24 hrs by luminescence based GloMax Discover assay
Format: cell-based
Details: not given
Target sequence in this assay (P48729 2-337 limits assumed): as the sequence (P48729 2-337 limits assumed) above
Target sequence in this assay (Q96SW2 whole entry partner): as the sequence (Q96SW2 whole entry partner) above
Compound O=C1CCC(N2Cc3cc(NC(=O)c4cccc(C(F)(F)F)c4)ccc3C2=O)C(=O)N1 (stereo not given) has an Activity of 1.65 h⁻¹.
Work on Cc1ccc(C(=O)Nc2ccc3c(c2)C(=O)N(C2CCC(=O)NC2=O)C3=O)cc1 (stereo not given) yielded an Activity of 0.61 h⁻¹.
Cc1ccc(C(=O)Nc2ccc3c(c2)CN(C2CCC(=O)NC2=O)C3=O)cc1 (stereo not given) gave an Activity of 1.3 h⁻¹.

Biological target: T1, Cereblon/Casein kinase I alpha
Test: (§1) Binding affinity to Halo-tagged CRBN (unknown origin)/HiBiT-tagged CK1alpha in HEK293 cells transfected with LgBiT expression vector assessed as ternary complex formation by measuring fold increase in NanoBRET signal preincubated with MG132 for 30 mins followed by compound addition and measured after 2 hrs by NanoBRET assay relative to control
Format: cell-based
Details: not given
Target sequence in this assay (P48729 2-337 limits assumed): as the sequence (P48729 2-337 limits assumed) above
Target sequence in this assay (Q96SW2 whole entry partner): as the sequence (Q96SW2 whole entry partner) above
Compound O=C1CCC(N2Cc3c(CNC(=O)c4ccc(F)cc4)cccc3C2=O)C(=O)N1 (stereo not given) has a fold change (FC) of 6.
For O=C1CCC(N2Cc3cc(NC(=O)c4cccc(C(F)(F)F)c4)ccc3C2=O)C(=O)N1 (stereo not given), the fold change (FC) was 8.2.
With Cc1ccc(C(=O)Nc2ccc3c(c2)C(=O)N(C2CCC(=O)NC2=O)C3)cc1 (stereo not given) the fold change (FC) was 0.3.
For Cc1ccc(C(=O)Nc2ccc3c(c2)C(=O)N(C2CCC(=O)NC2=O)C3=O)cc1 (stereo not given), the fold change (FC) was 3.1.
With Cc1ccc(C(=O)Nc2ccc3c(c2)CN(C2CCC(=O)NC2=O)C3=O)cc1 (stereo not given) the fold change (FC) was 7.7.

Biological target: T2, Cereblon/Ikaros
Test: as §1, with “IKZF1” for “CK1alpha”, “human Jurkat” for “HEK293”
Format: cell-based
Details: not given
O=C1CCC(N2Cc3c(CNC(=O)c4ccc(F)cc4)cccc3C2=O)C(=O)N1 (stereo not given) gave a fold change (FC) of 11.

Biological target: Protein cereblon/Eukaryotic peptide chain release factor GTP-binding subunit ERF3A (Homo sapiens) (UniProt Q96SW2+P15170)
Sequence (P15170 whole entry, looked up): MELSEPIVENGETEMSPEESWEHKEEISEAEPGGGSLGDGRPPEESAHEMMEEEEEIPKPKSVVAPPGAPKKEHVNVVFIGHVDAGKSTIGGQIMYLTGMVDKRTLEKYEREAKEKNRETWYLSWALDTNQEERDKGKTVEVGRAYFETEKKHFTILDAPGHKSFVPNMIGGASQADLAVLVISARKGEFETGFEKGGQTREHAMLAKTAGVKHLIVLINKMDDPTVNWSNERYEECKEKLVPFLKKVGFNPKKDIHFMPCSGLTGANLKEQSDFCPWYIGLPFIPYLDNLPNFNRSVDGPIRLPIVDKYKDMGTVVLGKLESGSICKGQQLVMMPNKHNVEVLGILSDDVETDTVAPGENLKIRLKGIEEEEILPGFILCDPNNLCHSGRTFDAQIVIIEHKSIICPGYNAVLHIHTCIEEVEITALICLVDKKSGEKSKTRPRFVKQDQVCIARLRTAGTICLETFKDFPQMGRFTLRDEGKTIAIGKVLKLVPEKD
Sequence (Q96SW2 whole entry, looked up): as the sequence (Q96SW2 whole entry partner) above
Test: PROTAC activity at CRBN (unknown origin)/human HiBiT-tagged GSPT1 transfected in HEK293 cells assessed as induction of GSPT1 degradation measured after 24 hrs by Nano-Glo reagent based luminescence analysis
Format: cell-based
Details: not given
With O=C1CCC(N2Cc3cc(NC(=O)c4cccc(C(F)(F)F)c4)ccc3C2=O)C(=O)N1 (stereo not given) the Activity was “inactive”.
In the case of Cc1ccc(C(=O)Nc2ccc3c(c2)C(=O)N(C2CCC(=O)NC2=O)C3)cc1 (stereo not given), the Activity is reported as “inactive”.
In the case of Cc1ccc(C(=O)Nc2ccc3c(c2)C(=O)N(C2CCC(=O)NC2=O)C3=O)cc1 (stereo not given), the Activity is reported as “inactive”.
In the case of Cc1ccc(C(=O)Nc2ccc3c(c2)CN(C2CCC(=O)NC2=O)C3=O)cc1 (stereo not given), the Activity is reported as “inactive”.

Test system: not listed separately
Test: Solubility of compound at pH 7.4 incubated for 18 hrs by UV-spectra analysis
Format: physicochemical
Details: buffer, pH 7.4, 18 h
Cc1ccc(C(=O)Nc2ccc3c(c2)CN(C2CCC(=O)NC2=O)C3=O)cc1 (stereo not given) gave a solubility of 2.5 µM (≈ 0.944 µg/mL).

Biological target: Cereblon/Ikaros (Homo sapiens, UniProt Q13422+Q96SW2)
Sequence (Q96SW2 whole entry): as the sequence (Q96SW2 whole entry partner) above
Sequence (Q13422 whole entry): as the sequence (Q13422 whole entry) above
Test: Binding affinity to Halo-tagged CRBN (unknown origin)/HiBiT-tagged IKZF1 in human Jurkat cells transfected with LgBiT expression vector assessed as ternary complex formation preincubated with MG132 for 30 mins followed by compound addition and measured after 2 hrs by NanoBRET assay
Format: cell-based
Details: not given
O=C1CCC(N2Cc3c(CNC(=O)c4ccc(F)cc4)cccc3C2=O)C(=O)N1 (stereo not given) showed an EC50 of 120 nM.

Test system: HEK293
Test: Cytotoxicity against HEK293 cells expressing HiBiT-tagged CK1alpha at 0.0001 to 100 uM measured over 24 hrs by Cell-Titer Glo assay
Format: toxicity, cell-based
Details: human, hek293, 24 h, dose 0.0001-100 µM
In the case of O=C1CCC(N2Cc3cc(NC(=O)c4cccc(C(F)(F)F)c4)ccc3C2=O)C(=O)N1 (stereo not given), the Activity is reported as “Non-Toxic”.
In the case of Cc1ccc(C(=O)Nc2ccc3c(c2)C(=O)N(C2CCC(=O)NC2=O)C3)cc1 (stereo not given), the Activity is reported as “Non-Toxic”.
With Cc1ccc(C(=O)Nc2ccc3c(c2)C(=O)N(C2CCC(=O)NC2=O)C3=O)cc1 (stereo not given) the Activity was “Non-Toxic”.
For Cc1ccc(C(=O)Nc2ccc3c(c2)CN(C2CCC(=O)NC2=O)C3=O)cc1 (stereo not given), the Activity was “Non-Toxic”.

Biological target: T1, Cereblon/Casein kinase I alpha
Test: Binding affinity to Halo-tagged CRBN (unknown origin)/HiBiT-tagged CK1alpha in HEK293 cells transfected with LgBiT expression vector assessed as ternary complex formation preincubated with MG132 for 30 mins followed by compound addition and measured after 2 hrs by NanoBRET assay
Format: cell-based
Details: not given
O=C1CCC(N2Cc3c(CNC(=O)c4ccc(F)cc4)cccc3C2=O)C(=O)N1 (stereo not given) showed an EC50 of 260 nM.
O=C1CCC(N2Cc3cc(NC(=O)c4cccc(C(F)(F)F)c4)ccc3C2=O)C(=O)N1 (stereo not given) gave an EC50 of 129 nM.
In the case of Cc1ccc(C(=O)Nc2ccc3c(c2)C(=O)N(C2CCC(=O)NC2=O)C3)cc1 (stereo not given), the Activity is reported as “inactive”.
Cc1ccc(C(=O)Nc2ccc3c(c2)C(=O)N(C2CCC(=O)NC2=O)C3=O)cc1 (stereo not given) gave an EC50 of 202 nM.
For Cc1ccc(C(=O)Nc2ccc3c(c2)CN(C2CCC(=O)NC2=O)C3=O)cc1 (stereo not given), the EC50 was 105 nM.

Biological target: T2, Cereblon/Ikaros
Test: PROTAC activity at CRBN/HiBiT-tagged IKZF1 in human Jurkat cells transfected with LgBiT expression vector assessed as induction of IKZF1 degradation measured after 24 hrs by luminescence based GloMax Discover assay
Format: cell-based
Details: not given
O=C1CCC(N2Cc3c(CNC(=O)c4ccc(F)cc4)cccc3C2=O)C(=O)N1 (stereo not given) gave a DC50 of 53 nM.
For O=C1CCC(N2Cc3cc(NC(=O)c4cccc(C(F)(F)F)c4)ccc3C2=O)C(=O)N1 (stereo not given), the Activity was “inactive”.
In the case of Cc1ccc(C(=O)Nc2ccc3c(c2)C(=O)N(C2CCC(=O)NC2=O)C3)cc1 (stereo not given), the Activity is reported as “inactive”.
In the case of Cc1ccc(C(=O)Nc2ccc3c(c2)C(=O)N(C2CCC(=O)NC2=O)C3=O)cc1 (stereo not given), the Activity is reported as “inactive”.
With Cc1ccc(C(=O)Nc2ccc3c(c2)CN(C2CCC(=O)NC2=O)C3=O)cc1 (stereo not given) the Activity was “inactive”.

Test system: not listed separately
Test: Apparent permeability across apical to basolateral side in MDCK-II cells at 10 micromol/L incubated for 1 hrs by UPLC/MS analysis
Format: ADME, cell-based, Canis lupus familiaris
Details: dog, mdck-ii, 1 h, 10 µM, dose 10 µmol/L
For Cc1ccc(C(=O)Nc2ccc3c(c2)CN(C2CCC(=O)NC2=O)C3=O)cc1 (stereo not given), the Papp was 2.5 ×10⁻⁶ cm/s.

Test system: not listed separately
Test: Metabolic stability in pooled human liver microsomes assessed as half-life at 10 uM measured upto 4 hrs in presence of NADPH by UPLC-MS/MS analysis
Format: ADME, Microsome
Details: not given
With Cc1ccc(C(=O)Nc2ccc3c(c2)CN(C2CCC(=O)NC2=O)C3=O)cc1 (stereo not given) the t1/2 was 7.2 h.

Biological target: Protein cereblon/DNA damage-binding protein 1 (Homo sapiens) (UniProt Q96SW2+Q16531)
Sequence (Q16531 2-1140 partner limits assumed): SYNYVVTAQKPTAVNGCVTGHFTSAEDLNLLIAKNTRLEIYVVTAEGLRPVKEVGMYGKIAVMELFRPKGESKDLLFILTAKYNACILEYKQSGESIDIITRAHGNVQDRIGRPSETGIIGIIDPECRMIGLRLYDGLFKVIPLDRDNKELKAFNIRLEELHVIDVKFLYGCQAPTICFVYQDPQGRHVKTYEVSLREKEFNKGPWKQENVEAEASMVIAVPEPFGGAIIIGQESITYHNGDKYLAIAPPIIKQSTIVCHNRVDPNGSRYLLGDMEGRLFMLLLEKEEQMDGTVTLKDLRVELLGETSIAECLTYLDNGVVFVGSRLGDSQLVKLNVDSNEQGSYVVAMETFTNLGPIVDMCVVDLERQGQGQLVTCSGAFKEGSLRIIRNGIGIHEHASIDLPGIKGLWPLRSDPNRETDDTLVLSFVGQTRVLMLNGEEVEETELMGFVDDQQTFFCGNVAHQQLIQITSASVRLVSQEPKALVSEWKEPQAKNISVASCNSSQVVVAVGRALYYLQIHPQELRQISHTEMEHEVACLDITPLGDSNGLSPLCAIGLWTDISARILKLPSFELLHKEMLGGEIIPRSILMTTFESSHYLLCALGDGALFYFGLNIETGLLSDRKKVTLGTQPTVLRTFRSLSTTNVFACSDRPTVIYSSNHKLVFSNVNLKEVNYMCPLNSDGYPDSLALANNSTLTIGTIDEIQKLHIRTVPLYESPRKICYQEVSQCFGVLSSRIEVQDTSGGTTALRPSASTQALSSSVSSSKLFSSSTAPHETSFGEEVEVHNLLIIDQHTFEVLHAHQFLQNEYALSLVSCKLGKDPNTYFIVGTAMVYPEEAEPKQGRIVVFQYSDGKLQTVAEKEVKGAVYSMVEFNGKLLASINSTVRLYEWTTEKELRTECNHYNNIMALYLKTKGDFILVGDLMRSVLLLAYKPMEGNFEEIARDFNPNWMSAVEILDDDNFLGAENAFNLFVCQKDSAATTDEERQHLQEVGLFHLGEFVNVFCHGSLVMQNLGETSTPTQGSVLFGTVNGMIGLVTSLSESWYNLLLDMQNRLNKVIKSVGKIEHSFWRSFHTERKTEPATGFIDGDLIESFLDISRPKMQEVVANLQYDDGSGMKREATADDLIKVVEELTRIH
Sequence (Q96SW2 whole entry): as the sequence (Q96SW2 whole entry partner) above
Test: Binding affinity to 6-His tagged CRBN/DDB1 (unknown origin) incubated for 1 hrs in presence of Cy5-O-Len probe by fluorescence polarization assay
Format: protein assay
Details: not given
O=C1CCC(N2Cc3c(CNC(=O)c4ccc(F)cc4)cccc3C2=O)C(=O)N1 (stereo not given) showed an Activity of 1.3 µM.
